{
  "source": "patent US10690661B2",
  "about": "“Yeast-based biosensor” (priority 2014, dated 2020)",
  "key": {"[1]": {"target": "Mutant receptors derived from RecCys1 mutagenesis", "assay": "Dose response of mutant receptors evolved for cystatin chimera Cys2", "type": "cell-based, Saccharomyces cerevisiae", "conditions": "FIG. 9b", "description": "(§1) Receptor activation was coupled to green fluorescent protein (GFP) expression by cloning GFP downstream of the Ste2p-activated FUS1 promoter. Therefore a receptor mutant that is successfully activated by the POI will result in the cell fluorescing green. The discriminating power of the screen is improved by including an internal control, constitutive expression of mKate (a red fluorescent protein). Red fluorescence corresponds to cell size, and allows us to normalize the GFP measurement for more accurate sorting. […] The initial HTS has false positive (FP) rates of 20% and false negative (FN) rates of 10%. The FP and FN rate is overcome by doing multiple rounds of enrichment. In four rounds of enrichment, a population of cells is isolated that originally was 1 in 10^6.\n(§2) Initial attempts to evolve directly for the cystatin/GSS peptides were unsuccessful. To take smaller evolutionary steps, chimera peptides were designed that were more similar to α-factor. Receptors were evolved to recognize peptide that contain several changes in the peptide sequence (FIG. 9a-c).\nReceptors have been successfully evolved for some chimeras. Two steps have been completed for cystatin (evolving for Cys1 and then using that receptor as a parent to evolve for Cys2) and one step for GSS."}, "[2]": {"tested_on": "evolved cystatin receptor", "type": "cell-based, Saccharomyces cerevisiae"}, "[3]": {"target": "Mutant receptors (RecCys1)", "assay": "Dose response of mutant receptors evolved for cystatin chimera Cys1", "type": "cell-based, Saccharomyces cerevisiae", "conditions": "FIG. 9a", "description": "as §1, §2"}, "Mutant receptor RecGssB": {"tested_on": "Mutant receptor RecGssB", "assay": "Dose response of mutant receptors evolved for GSS chimera GssB", "type": "cell-based, Saccharomyces cerevisiae", "description": "as §1, §2"}, "native Ste2 receptor [4]": {"target": "T1, native Ste2 receptor (Saccharomyces cerevisiae, UniProt D6VTK4, A176T/D201G/D370N/S34T)", "T1 construct": "contains yeast Sterile2 (Ste2) receptor between the constitutive GPD promoter and the CYC1 terminator; expressed in transfected cells; host or cells: S. cerevisiae MPY578t5 derivatives (native STE2 removed), plasmid pJB036", "T1 sequence (D6VTK4 whole entry S34T/A176T/D201G/D370N)": "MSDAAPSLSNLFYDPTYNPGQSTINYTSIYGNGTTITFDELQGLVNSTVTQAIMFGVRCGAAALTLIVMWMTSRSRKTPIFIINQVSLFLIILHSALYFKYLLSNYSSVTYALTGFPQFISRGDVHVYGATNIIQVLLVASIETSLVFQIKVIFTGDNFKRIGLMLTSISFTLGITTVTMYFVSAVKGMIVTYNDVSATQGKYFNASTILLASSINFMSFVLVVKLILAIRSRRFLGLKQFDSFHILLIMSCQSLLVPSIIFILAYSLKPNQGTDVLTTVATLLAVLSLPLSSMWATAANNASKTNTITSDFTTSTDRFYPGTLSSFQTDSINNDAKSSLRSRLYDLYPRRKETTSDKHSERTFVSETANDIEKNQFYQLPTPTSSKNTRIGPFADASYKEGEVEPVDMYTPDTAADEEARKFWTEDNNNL", "conditions": "physiological concentrations; previous literature; cited from earlier work"}, "[5]": {"target": "Mutant 56.5 (mutant Ste2 receptor)", "assay": "GFP/RFP reporter dose response, isolated mutant receptor Mutant 56.5", "conditions": "alpha factor on Mutant 56.5, compared with native Ste2; FIG. 4B"}, "[6]": {"tested_on": "mutant Ste2 receptors isolated for Variant 56", "assay": "GFP/RFP reporter dose response, mutants isolated for sensitivity to ligand Variant 56"}, "[7]": {"tested_on": "evolved receptors (from Ste2p)", "assay": "Sensitivity enhancement dose response of evolved receptors", "type": "cell-based, Saccharomyces cerevisiae", "conditions": "FIG. 11"}, "[8]": {"target": "Mutant 44.1 (mutant Ste2 receptor)", "assay": "GFP/RFP reporter dose response, isolated mutant receptor Mutant 44.1", "conditions": "alpha factor on Mutant 44.1, compared with native Ste2; FIG. 3B"}, "native Ste2 receptor [9]": {"target": "T1, native Ste2 receptor", "assay": "GFP/RFP reporter dose response in yeast expressing the native Ste2 receptor", "type": "cell-based", "conditions": "compared to the native ligand"}, "[10]": {"tested_on": "re-mutagenized mutant Ste2 receptor library", "assay": "Screen of library made by re-mutagenizing a Variant 56-sensitive mutant receptor", "type": "cell-based, Saccharomyces cerevisiae", "conditions": "FIG. 7a", "description": "Specificity can be increased with iterative selection and counter-selection (FIG. 7b). […] Round 2 library mutants were also screened for lack of activity for α-factor, confirming the evolution of receptors for specificity against α-factor (FIG. 7c)."}},
  "note": "Entries after “also recorded” stand apart in the source; their conditions may differ.",
  "data": [
    {"sequence": "ALALKPGEPMY [Cys2]", "values": [
      {"measurement": "EC50 relative to RecSte2p", "setting": "[1]", "value": "lower"}
    ]},
    {"sequence": "ALDFAVGEYNK (listed as Cystatin chimera) [Cys5]", "values": [
      {"measurement": "response of evolved cystatin receptor", "setting": "[2]; FIG. 13B", "value": "rises in response"},
      {"measurement": "response of receptor mutants evolved from Ste2p (dose response curve)", "setting": "[2]; FIG. 14A-C", "value": "respond"}
    ]},
    {"sequence": "HALALKPGEPMY [Cys1]", "values": [
      {"measurement": "EC50 relative to RecSte2p", "setting": "[3]", "value": "lower"}
    ]},
    {"sequence": "LRLLALKPGQPLYGR [Gss1]", "values": [
      {"measurement": "effect of GssB-enhancing receptor mutations on response", "setting": "Mutant receptor RecGssB; receptors carrying mutations that enhance the response to GssB", "value": "enhance response"}
    ]},
    {"sequence": "WAWLQLKPGQPMY", "values": [
      {"measurement": "response of Ste2 to the ligand", "setting": "native Ste2 receptor [4]", "value": "very low response, if any"}
    ]},
    {"sequence": "WHWLQLKPGEPLYGR [GssB]", "values": [
      {"measurement": "EC50 relative to RecSte2p", "setting": "Mutant receptor RecGssB; FIG. 9c", "value": "lower"}
    ]},
    {"sequence": "WHWLQLKPGQPMY [α-factor]", "values": [
      {"measurement": "EC50 relative to Ste2", "setting": "[5]", "value": "significantly higher"},
      {"measurement": "activity of isolated mutants for the native pheromone", "setting": "[6]; FIG. 4B", "value": "maintained some activity"},
      {"measurement": "concentration at which evolved receptors respond, relative to wild type/Ste2p receptor", "setting": "[7]", "value": "concentrations lower than the wild type"},
      {"measurement": "response of evolved receptor to the native ligand", "setting": "Mutant receptor RecGssB; FIG. 9d", "value": "do not respond; also recorded: no longer responds"},
      {"measurement": "EC50 relative to Ste2", "setting": "[8]", "value": "significantly higher"}
    ]},
    {"sequence": "WHYLQLKPGQPMY [Variant 56]", "values": [
      {"measurement": "EC50 relative to Ste2", "setting": "[6]; all five isolated mutants, FIG. 4A, FIG. 5", "value": "significantly lower"},
      {"measurement": "activity of the native Ste2 receptor for the ligand", "setting": "native Ste2 receptor [9]", "value": "little activity"},
      {"measurement": "activity of new library after second round of mutagenesis", "setting": "[10]", "value": "increased activity"},
      {"measurement": "response of Ste2 to the ligand", "setting": "native Ste2 receptor [4]", "value": "very low response, if any"}
    ]}
  ]
}
